Measured values published in patent US8623407B2, “Gabapentin-containing solid compositions and process for preparing the same” (Pfizer Inc., priority 1998, dated 2014).

What was measured:
Format in all cases: physicochemical
[1] = Dehydration reaction (lactam formation) when maintained in a dried state at 105° C.; settings: 105° C. over 2-3 hours
Procedure: To the contrary, in γ-aminobutyric acid derivatives having no or a less bulky substituent at the 3-position thereof, such as γ-aminobutyric acid or 4-amino-3-hydroxy-butanoic acid, the dehydration reaction is not brought about even when maintained in a dried state such as at a temperature of 105° C. over 2-3 hours, and the formation of 4-cyclohexylpyrrolidone (the corresponding lactam form) is not observed. In other words, in the 4-amino-3-substituted-butanoic acid derivative wherein the substituent at the 3-position thereof has a bulky structure, the dehydration reaction could easily be brought about between the amino group and the carboxyl group within the molecule.

[2] = Storage stability of baclofen samples: dehydrated condensates content by HPLC; settings: based on baclofen
Procedure: The baclofen powder samples G and H obtained as described above and untreated baclofen crystals were stored under the conditions as defined in the following Table 8 and then a content of dehydrated condensates formed in each of the samples was determined by means of HPLC. In this Example, the content of the dehydrated condensates is expressed in terms of % by weight, based on baclofen.

[3] = Storage stability of pregabalin samples: dehydrated condensate content by HPLC; settings: Table 9, based on pregabalin
Procedure: The samples I, J and K obtained as described above and untreated pregabalin crystals were stored under the conditions as defined in the following Table 9 and then a content of the dehydrated condensate formed in each of the samples was determined by means of HPLC. In the present Example and the following Example 6, a content of the dehydrated condensate is expressed in terms of % by weight, based on pregabalin.
The samples L and M obtained as described above were stored under the conditions as defined in the following Table 10 and then a content of the dehydrated condensate formed in each of the samples was determined by means of HPLC.

## NCC(O)CC(=O)O (stereo not drawn) [4-amino-3-hydroxy-butanoic acid]
[1]
  formation of 4-cyclohexylpyrrolidone (the corresponding lactam form): not observed

## NCC(CC(=O)O)c1ccc(Cl)cc1 (stereo not drawn) [Untreated Baclofen]
[2]; 60° C./1 week (sealed)
  content of dehydrated condensates: 0.36 % by weight
[2]; 60° C./2 weeks (sealed)
  content of dehydrated condensates: 0.57 % by weight
[2]; 60° C./3 weeks (sealed)
  content of dehydrated condensates: 0.70 % by weight
[2]; When Initiated
  content of dehydrated condensates: 0.10 % by weight

## CC(C)CC(CN)CC(=O)O (stereo not drawn) [Untreated Pregabalin, 5-methyl-3-aminomethyl-hexanoic acid]
[3]; 60° C./1 week (sealed)
  content of the dehydrated condensate: 0.001 % by weight
[3]; 60° C./2 weeks (sealed)
  content of the dehydrated condensate: 0.001 % by weight
[3]; When initiated
  content of the dehydrated condensate: <0.001 % by weight

## NCCCC(=O)O [γ-aminobutyric acid]
[1]
  formation of 4-cyclohexylpyrrolidone (the corresponding lactam form): not observed
